According to BigSolDB 2.1:

O=C1Cc2ccccc2N1
Conditions	solubility (mole fraction)
in 1,4-dioxane, 287.15 K	0.276
in 1,4-dioxane, 292.15 K	0.309
in 1,4-dioxane, 296.15 K	0.336
in 1,4-dioxane, 300.15 K	0.363
in 1,4-dioxane, 304.15 K	0.394
in 1,4-dioxane, 308.65 K	0.421
in 1,4-dioxane, 311.65 K	0.448
in 1,4-dioxane, 315.35 K	0.475
in 1,4-dioxane, 319.05 K	0.502
in 1,4-dioxane, 323.15 K	0.529
in 1,4-dioxane, 328.15 K	0.567
in THF, 293.85 K	0.0116
in THF, 298.65 K	0.0133
in THF, 302.95 K	0.0155
in THF, 307.25 K	0.0181
in THF, 312.55 K	0.021
in THF, 317.05 K	0.0243
in THF, 321.35 K	0.0276
in THF, 327.35 K	0.0327
in THF, 333.95 K	0.0397
in acetone, 288.15 K	0.0498
in acetone, 294.05 K	0.0602
in acetone, 299.35 K	0.0707
in acetone, 304.55 K	0.0812
in acetone, 309.65 K	0.0919
in acetone, 314.45 K	0.102
in acetone, 319.55 K	0.112
in acetone, 325.55 K	0.122
in acetone, 328.25 K	0.127
in acetonitrile, 287.15 K	0.0508
in acetonitrile, 292.15 K	0.0628
in acetonitrile, 296.15 K	0.0748
in acetonitrile, 300.15 K	0.0869
in acetonitrile, 304.15 K	0.101
in acetonitrile, 308.65 K	0.123
in acetonitrile, 311.65 K	0.146
in acetonitrile, 315.35 K	0.171
in acetonitrile, 319.05 K	0.196
in acetonitrile, 323.15 K	0.227
in acetonitrile, 328.15 K	0.285
in dichloromethane, 288.15 K	0.0353
in dichloromethane, 292.15 K	0.0383
in dichloromethane, 296.15 K	0.0419
in dichloromethane, 300.15 K	0.0452
in dichloromethane, 304.15 K	0.0485
in dichloromethane, 308.65 K	0.0519
in dichloromethane, 311.65 K	0.0552
in ethanol, 291.95 K	0.00842
in ethanol, 297.95 K	0.0134
in ethanol, 302.95 K	0.0186
in ethanol, 307.65 K	0.0253
in ethanol, 312.55 K	0.0324
in ethanol, 318.05 K	0.0458
in ethanol, 322.65 K	0.0568
in ethanol, 327.95 K	0.0742
in ethanol, 332.65 K	0.0952
in ethyl acetate, 287.15 K	0.141
in ethyl acetate, 292.15 K	0.156
in ethyl acetate, 296.15 K	0.169
in ethyl acetate, 300.15 K	0.184
in ethyl acetate, 304.15 K	0.198
in ethyl acetate, 308.65 K	0.215
in ethyl acetate, 311.65 K	0.233
in ethyl acetate, 315.35 K	0.247
in ethyl acetate, 319.05 K	0.27
in ethyl acetate, 323.15 K	0.287
in ethyl acetate, 328.15 K	0.32
in isopropanol, 291.95 K	0.00673
in isopropanol, 297.95 K	0.00919
in isopropanol, 303.05 K	0.0122
in isopropanol, 308.35 K	0.0155
in isopropanol, 313.15 K	0.0192
in isopropanol, 317.45 K	0.0232
in isopropanol, 322.15 K	0.0287
in isopropanol, 328.35 K	0.0355
in isopropanol, 333.35 K	0.0443
in methanol, 291.95 K	0.00441
in methanol, 297.95 K	0.00563
in methanol, 302.95 K	0.00688
in methanol, 307.65 K	0.00821
in methanol, 312.55 K	0.00977
in methanol, 317.45 K	0.0119
in methanol, 322.15 K	0.0137
in methanol, 327.35 K	0.0163
in methanol, 332.35 K	0.019
in n-butanol, 293.85 K	0.00297
in n-butanol, 298.65 K	0.00379
in n-butanol, 302.95 K	0.00468
in n-butanol, 307.25 K	0.00546
in n-butanol, 312.55 K	0.00674
in n-butanol, 317.05 K	0.00793
in n-butanol, 321.35 K	0.00952
in n-butanol, 327.35 K	0.0115
in n-butanol, 333.95 K	0.0143
in n-propanol, 293.15 K	0.0387
in n-propanol, 299.35 K	0.0476
in n-propanol, 303.05 K	0.0523
in n-propanol, 308.35 K	0.0599
in n-propanol, 313.15 K	0.0677
in n-propanol, 317.05 K	0.0744
in n-propanol, 320.75 K	0.0814
in n-propanol, 328.35 K	0.0976
in n-propanol, 333.35 K	0.109
in toluene, 291.95 K	0.00318
in toluene, 297.95 K	0.00526
in toluene, 302.95 K	0.00796
in toluene, 307.65 K	0.0121
in toluene, 312.55 K	0.018
in toluene, 317.45 K	0.0258
in toluene, 322.15 K	0.0389
in toluene, 327.35 K	0.0615
in toluene, 332.05 K	0.0848
